Assay results taken from ChEMBL document CHEMBL1142851, “An efficient synthesis of aryloxyphenyl cyclopropyl methanones: a new class of anti-mycobacterial agents” (2005).
In brackets after ≈: the same amount, converted by molar mass.

Key:
[1] = tested on: Mycobacterium tuberculosis; assay: Minimum inhibitory concentration against H37Ra stain of Mycobacterium tuberculosis using MABA method; format: functional
[2] = tested on: Mycobacterium tuberculosis; assay: Minimum inhibitory concentration against H37Rv stain of Mycobacterium tuberculosis using Agar Microdilution; format: functional

Compound | MIC [1] [µg/mL] | MIC [2] [µg/mL]
c1cncc(COc2ccc(CC3CC3)cc2)c1 | > 25 | 25 (≈ 104 µM)
O=C(c1ccc(OCc2ccccc2Cl)cc1)C1CC1 | > 25 | 12.5 (≈ 43.6 µM)
Fc1ccc(COc2ccc(CC3CC3)cc2)cc1 |  | 12.5 (≈ 48.8 µM)
COc1ccc(COc2ccc(CC3CC3)cc2)cc1OC | 12.5 (≈ 41.9 µM) | 25 (≈ 83.8 µM)
OC(c1ccc(OCc2ccncc2)cc1)C1CC1 (configuration not stated) | > 25 | > 25
O=C(c1ccc(OCC2CCCC2)cc1)C1CC1 | > 25 | 25 (≈ 102 µM)
OC(c1ccc(OCc2ccccc2)cc1)C1CC1 (configuration not stated) | > 50 | 25 (≈ 98.3 µM)
O=C(c1ccc(OCc2ccc(F)cc2)cc1)C1CC1 | > 25 | 12.5 (≈ 46.2 µM)
COc1ccc(COc2ccc(C(O)C3CC3)cc2)cc1 (configuration not stated) | > 50 | 3.12 (≈ 11 µM)
c1ccc(COc2ccc(CC3CC3)cc2)cc1 | > 50 | 12.5 (≈ 52.4 µM)
OC(c1ccc(OCc2ccccc2Cl)cc1)C1CC1 (configuration not stated) | > 25 | 
OC(c1ccc(OCc2ccco2)cc1)C1CC1 (configuration not stated) | > 25 | > 25
O=C(c1ccc(OCc2ccccc2)cc1)C1CC1 | 25 (≈ 99.1 µM) | 6.25 (≈ 24.8 µM)
COc1ccc(COc2ccc(C(=O)C3CC3)cc2)cc1 | > 50 | 12.5 (≈ 44.3 µM)
COc1ccc(COc2ccc(C(=O)C3CC3)cc2)cc1OC | 25 (≈ 80 µM) | 12.5 (≈ 40 µM)
O=C(c1ccc(OCC2CCCCC2)cc1)C1CC1 | > 25 | > 25
Clc1ccccc1COc1ccc(CC2CC2)cc1 | > 25 | > 50
O=C(c1ccc(OCc2cccnc2)cc1)C1CC1 | > 25 | 25 (≈ 98.7 µM)
O=C(c1ccc(OCc2ccc(Cl)cc2)cc1)C1CC1 | > 25 | 25 (≈ 87.2 µM)
COc1ccc(COc2ccc(C(O)C3CC3)cc2)cc1OC (configuration not stated) | 3.12 (≈ 9.92 µM) | > 50
O=C(c1ccc(OCCc2ccco2)cc1)C1CC1 | 25 (≈ 97.5 µM) | 25 (≈ 97.5 µM)
O=C(c1ccc(OCc2ccc(Cl)c(Cl)c2)cc1)C1CC1 | > 25 | 25 (≈ 77.8 µM)
OC(c1ccc(OCC2CCCC2)cc1)C1CC1 (configuration not stated) | 25 (≈ 101 µM) | 3.12 (≈ 12.7 µM)
OC(c1ccc(OCc2cccnc2)cc1)C1CC1 (configuration not stated) | > 25 | > 25
COc1ccc(COc2ccc(CC3CC3)cc2)cc1 | > 25 | 25 (≈ 93.2 µM)
OC(c1ccc(OCc2ccc(F)cc2)cc1)C1CC1 (configuration not stated) | 25 (≈ 91.8 µM) | 6.25 (≈ 23 µM)
O=C(c1ccc(OCc2ccncc2)cc1)C1CC1 | > 25 | 12.5 (≈ 49.3 µM)
